Our source for the GI50 and TGI values is PubChem BioAssay (NCI).

The structures appear in SMILES notation. Several values for one entry are separate records, joined by “and”; a condition that tells them apart may be missing. Equal values may be shown once.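 Five compound concentrations were applied to cells in 96-well plates for 48 hours; endpoints were derived by simple linear interpolation of the resulting dose-response curve. GI50 is the concentration that inhibits growth by half. TGI: concentration producing complete growth inhibition.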

The subject of experiment [1] is P388/ADR leukemia. Briefly: NCI tumour cell line growth inhibition, 48 h.
The subject of experiment [2] is P388 leukemia. Briefly: NCI tumour cell line growth inhibition, 48 h.

Take `NC(=S)N/N=C/c1ccc(O)cn1`: in experiment [1], the GI50 was 0.943 µM and 1.5 µM; the TGI was 154 µM and 24.5 µM. This compound showed a TGI in experiment [2] of 8.3 µM.
Take `OC(C1CO1)C(O)C1CO1` (stereo not drawn): the TGI in experiment [1] and in experiment [2] was 150 µM throughout.
Take `CC(C)[NH-].CC(C)[NH-].O.O.[Cl][Pt+2][Cl]`: in experiment [1], the GI50 is 8.11 µM and the TGI was 59.9 µM. In experiment [2], the GI50 is 6.66 µM and the TGI came to 37.9 µM.
Turning to `O=C(NCCCCCCNC(=O)n1cc(F)c(=O)[nH]c1=O)NCCCOCCOCCOCCOCCOCCOCCOCCOCCOCCOCCOCCOCCOCCOCCOCCOCCOCCOCCOCCOCCOCCCNC(=O)C(O)C(O)C(OC1OC(CO)C(O)C(O)C1O)C(O)CO` (stereo not drawn), the TGI in experiment [1] and in experiment [2] was over 100 µM throughout.
For `CCOC(=O)NC1=C(N2CC2)C(=O)C(NC(=O)OCC)=C(N2CC2)C1=O`, the TGI stood at 17.6 µM in experiment [1] and 14 µM in experiment [2].
